From the NIST ThermoML archive (doi:10.1021/je100231g)
Structures can show the parent of a compound that is named as a salt.

Settings: Liquid, Gas Saturation Method

CCCOC(=O)C(=O)OCCC [di-n-propyl oxalate]
Settings	vapor or sublimation pressure [kPa]
293.6 K	0.00943
298.5 K	0.0139
301.4 K	0.0175
306.4 K	0.0255
308.4 K	0.0304
311.4 K	0.0362
313.4 K	0.0413
316.3 K	0.052
318.6 K	0.0626
321.4 K	0.0741
323.3 K	0.0903
326.3 K	0.1085
328.3 K	0.1248
330.4 K	0.1423
333.5 K	0.1801

CCCCOC(=O)CC(=O)OCCCC [dibutyl 1,3-propanedioate]
Settings	vapor or sublimation pressure [kPa]
303.2 K	0.00138
308.3 K	0.00223
313.3 K	0.00366
318.3 K	0.00557
323.2 K	0.00878
325.1 K	0.0101
328.2 K	0.0131
330.2 K	0.0152
333.2 K	0.0193
335.2 K	0.0217
338.2 K	0.0267
340.2 K	0.0325
343.2 K	0.0407
345.2 K	0.0454
349.1 K	0.0586
353.1 K	0.0788
357.2 K	0.1022
361.2 K	0.1343
365.2 K	0.1672
369.2 K	0.2174

CCCCOC(=O)CCCCC(=O)OCCCC [dibutyl hexanedioate]
Settings	vapor or sublimation pressure [kPa]
313.2 K	0.00018
318.2 K	0.0003
323.2 K	0.00048
328.2 K	0.00079
333.3 K	0.00127
338.4 K	0.00202
343.1 K	0.00304
348.2 K	0.00467
353.2 K	0.00705
358.2 K	0.0102
363.2 K	0.0143
368.2 K	0.0201
373.2 K	0.0285
